Assay results taken from article PMC10460087, “Structure Activity Relationship and Molecular Docking of Some Quinazolines Bearing Sulfamerazine Moiety as New 3CLpro, cPLA2, sPLA2 Inhibitors” (Molecules, 2023).
Where two headings read alike, the source gives them in different places. Marks after values point to notes of the source that are not given here.

Assays:
[1] = tested on: sPLA2; format: cell-based, mouse; conditions: for decrease in sPLA2 level: compared to LPS-exposed cells
[2] = tested on: cPLA2; format: cell-based, mouse; conditions: for decrease in cPLA2 level: compared to LPS-exposed cells
[3] = tested on: IL-8; test: IL-8 level in LPS-treated isolated lung cells (ELISA); format: cell-based, mouse; conditions: for decrease in IL-8 level: compared to LPS-exposed cells
[4] = tested on: TNF-α; format: cell-based, mouse; conditions: for decrease in TNF-α level: compared to LPS-exposed cells
[5] = target: sPLA2; test: sPLA2 enzyme inhibition assay (Cayman Chemical kit); format: biochemical; conditions: mean ± SD; tested 0–17.5 µM
Protocol: The sPLA2 screening assay was carried out according to the manufacturer’s protocol (Cayman Chemical). Briefly, 10 μL of sPLA2 was mixed with 10 μL of dimethyl sulfoxide. In a separate experiment, 10 µL of sPLA2 was added to 10 µL standard sPLA2 inhibitor (thioetheramide, 12.5 µM) and 200 µL substrate solution (diheptanoyl thiol). […] In a separate experiment, 10 μL of assay buffer was mixed with 10 μL of dimethyl sulfoxide and 200 µL of substrate solution. The reaction was initiated by the addition 10 µL of DTNB to all samples. The plate was carefully vortexed for 10 s, then covered with a plate cover and incubated for 15 min at 25 °C. Absorbance was recorded at […] using a plate reader and the IC50 was determined for the synthesized compounds (4–6 and 12) as well as the standard drugs.

[6] = target: cPLA2; test: biochemical; design: species or system bee
Target sequence in this assay (P00630 34-167 limits assumed): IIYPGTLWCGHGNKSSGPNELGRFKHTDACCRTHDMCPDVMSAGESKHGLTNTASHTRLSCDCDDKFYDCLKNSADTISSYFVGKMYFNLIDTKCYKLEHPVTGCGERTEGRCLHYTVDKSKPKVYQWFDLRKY

[7] = tested on: NO; format: cell-based, mouse; conditions: for decrease in NO level: compared to LPS-exposed cells
[8] = target: SARS-CoV-2 main protease (Severe acute respiratory syndrome coronavirus 2, UniProt P0DTD1); test: biochemical; conditions: mean ± SD; tested 0–17.5 µM
[9] = target: cPLA2 (bee venom PLA2) (Apis mellifera, UniProt P00630); test: biochemical
Sequence of cPLA2 (bee venom PLA2) (P00630 34-167 limits assumed): as above

[10] = LPS 1 μg/mL + higher dose: 4 2.84, 5 3.68, 6 1.18, 12 5.47, baicalein 3.88, ivermectin 149.39 µM
[11] = LPS 1 μg/mL + lower dose: 4 1.44, 5 2.08, 6 0.5, 12 2.39, baicalein 0.89, ivermectin 131.01 µM
[12] = higher dose: 4 2.84, 5 3.68, 6 1.18, 12 5.47, baicalein 3.88, ivermectin 149.39 µM
[13] = lower dose: 4 1.44, 5 2.08, 6 0.5, 12 2.39, baicalein 0.89, ivermectin 131.01 µM

Row | Compound | sPLA2 level [1, 10] | sPLA2 level [1, 11] | decrease in sPLA2 level [1, 12] | decrease in sPLA2 level [1, 13] | cPLA2 level [2, 10] | cPLA2 level [2, 11] | decrease in cPLA2 level [2, 12] | decrease in cPLA2 level [2, 13] | IL-8 level [3, 10] | IL-8 level [3, 11] | decrease in IL-8 level [3, 12] | decrease in IL-8 level [3, 13] | TNF-α level [4, 10] | TNF-α level [4, 11] | decrease in TNF-α level [4, 12] | decrease in TNF-α level [4, 13] | IC50 [5] | NO level [7, 10] | NO level [7, 11] | decrease in NO level [7, 12] | also measured
1 | O=c1cc(-c2ccccc2)oc2cc(O)c(O)c(O)c12 [Baicalein, reference compound] | 24.77 ± 2.73 ^c pg/mL | 54.27 ± 3.46 ^h pg/mL | 80.88% | 58.11% | 616.34 ± 28.34 ^c dpm/mL | 903.43 ± 35.71 ^g dpm/mL | 78.13% | 67.33% | 1.42 ± 0.13 ^c ng/mL | 2.06 ± 0.23 ^g ng/mL | 75.26% | 64.11% | 431.21 ± 32.88 ^c pg/mL | 639.55 ± 37.84 ^g pg/mL | 56.01% | 34.76% | 890 ± 41 nM | 20.53 ± 1.89 ^c µmol/L | 32.01 ± 4.81 ^f µmol/L | 70.07% | IC50 [6]: 3880 ± 13 nM; decrease in NO level [7, 13]: 53.33%
2 | Cc1ccnc(NS(=O)(=O)c2ccc(Nc3nc4ccccc4c(=O)n3N)cc2)n1 [Compound 4] | 29.10 ± 2.52 ^d pg/mL | 57.93 ± 2.92 ^i pg/mL | 77.54% | 55.29% | 671.05 ± 29.17 ^d dpm/mL | 1077.77 ± 68.61 ^i dpm/mL | 76.19% | 61.75% | 2.17 ± 0.07 ^d ng/mL | 2.55 ± 0.26 ^c ng/mL | 62.20% | 55.57% | 481.36 ± 39.63 ^d pg/mL | 654.20 ± 22.28 ^h pg/mL | 50.90% | 33.36% | 2840 ± 26 nM | 25.18 ± 2.98 ^d µmol/L | 37.27 ± 3.00 ^c µmol/L | 63.29% | IC50 [8]: 2.012 ± 0.004 µM; IC50 [6]: 1440 ± 9 nM; decrease in NO level [7, 13]: 45.66%
3 | COc1cc(C=Nn2c(Nc3ccc(S(=O)(=O)Nc4nccc(C)n4)cc3)nc3ccccc3c2=O)ccc1O [Compound 5] | 34.17 ± 1.73 ^e pg/mL | 72.13 ± 3.94 ^k pg/mL | 73.63% | 44.33% | 719.32 ± 37.15 ^e dpm/mL | 1258.99 ± 35.57 ^k dpm/mL | 74.48% | 55.32% | 2.40 ±0.09 ^e ng/mL | 2.74 ± 0.32 ^c ng/mL | 58.19% | 52.26% | 524.98 ± 19.11 ^e pg/mL | 671.91 ± 23.11 ^i pg/mL | 46.44% | 31.26% | 2730 ± 8 nM | 29.37 ± 2.21 ^f µmol/L | 45.75 ± 2.87 ^g µmol/L | 57.18% | IC50 [8]: 3.68 ± 2.35 µM; IC50 [6]: 2080 ± 16 nM; decrease in NO level [7, 13]: 33.29%
4 | Cc1ccnc(NS(=O)(=O)c2ccc(N3CC(=O)Nn4c3nc3ccccc3c4=O)cc2)n1 [Compound 6] | 18.29 ± 2.35 ^b pg/mL | 43.44 ± 2.74 ^g pg/mL | 85.88% | 66.47% | 536.93 ± 23.50 ^b dpm/mL | 830.11 ± 34.00 ^f dpm/mL | 80.94% | 70.54% | 1.17 ± 0.06 ^b ng/mL | 1.79 ± 0.14 ^d ng/mL | 79.62% | 68.82% | 424.25 ± 36.86 ^f pg/mL | 582.31 ± 52.25 ^e pg/mL | 56.72% | 40.59% | 1020 ± 39 nM | 19.02 ± 1.5 ^b µmol/L | 24.67 ± 2.70 ^e µmol/L | 72.27% | IC50 [8]: 1.18 ± 0.025 µM; IC50 [6]: 500 ± 8 nM; decrease in NO level [7, 13]: 64.03%
5 | CCOC(=O)c1nn2c(=O)c3ccccc3nc2n1-c1ccc(S(=O)(=O)Nc2nccc(C)n2)cc1 [Compound 12] | 40.61 ± 4.19 ^f pg/mL | 85.23 ± 6.51 ^l pg/mL | 68.66% | 34.22% | 722.24 ± 30.40 ^e dpm/mL | 1348.21 ± 50.26 dpm/mL | 74.37% | 52.15% | 3.21 ± 0.21 ^f ng/mL | 3.84 ± 0.29 ^g ng/mL | 44.08% | 33.10% | 551.52 ± 24.65 ^f pg/mL | 748.98 ± 31.22 ^j pg/mL | 43.75% | 23.59% | 4450 ± 7 nM | 30.94 ± 3.76 ^f µmol/L | 50.36 ± 3.96 ^h µmol/L | 54.89% | IC50 [8]: 5.47 ± 0.018 µM; IC50 [6]: 2390 ± 46 nM; decrease in NO level [7, 13]: 26.57%
6 | Ivermectin [reference compound] | 62.31 ± 1.41 ^j pg/mL | 106.13 ± 9.81 ^m pg/mL | 51.41% | 18.09% | 1002.65 ± 90.98 ^h dpm/mL | 1172.50 ± 72.55 ^j dpm/mL | 64.41% | 58.39% | 3.10 ± 0.1 ^f ng/mL | 3.77 ± 0.62 ^g ng/mL | 45.99% | 34.32% | 714.29 ± 28.09 ^g pg/mL | 870.22 ± 40.62 ^k pg/mL | 27.13% | 11.23% | 110000 ± 3270 nM | 50.74 ± 3.34 ^h µmol/L | 62.01 ± 4.81 ^i µmol/L | 26.02% | IC50 [8]: 42.4 ± 2.5 µM; IC50 [9]: 138 ± 1.54 µM; decrease in NO level [7, 13]: 9.59%
